Measured values reported in the NIST ThermoML archive (doi:10.1021/je0498560).

Assay: xn = mol fraction of the nth substance listed
Details: Liquid

OCC(F)(F)F [2,2,2-trifluoroethanol] + O=C=O
Details	molar volume [m3/mol]
298 K, x2 = 0.132	6.39e-05
298 K, x2 = 0.225	6.3e-05
298 K, x2 = 0.358	5.95e-05
298 K, x2 = 0.48	5.81e-05
298 K, x2 = 0.599	5.71e-05
298 K, x2 = 0.704	5.51e-05
298 K, x2 = 0.749	5.51e-05
298 K, x2 = 0.795	5.43e-05
298 K, x2 = 0.842	5.49e-05
298 K, x2 = 0.888	5.48e-05
298 K, x2 = 0.927	5.5e-05
313 K, x2 = 0.16	6.1e-05
313 K, x2 = 0.23	6.13e-05
313 K, x2 = 0.337	6.06e-05
313 K, x2 = 0.424	5.94e-05
313 K, x2 = 0.517	5.84e-05
313 K, x2 = 0.628	5.51e-05
313 K, x2 = 0.715	5.3e-05
313 K, x2 = 0.773	5.34e-05
313 K, x2 = 0.849	5.65e-05
313 K, x2 = 0.901	5.98e-05

CN1CCCC1=O [N-methylpyrrolidone] + O=C=O
313 K
Details	molar volume [m3/mol]
x2 = 0.104	8.91e-05
x2 = 0.19	8.48e-05
x2 = 0.242	8.26e-05
x2 = 0.311	7.9e-05
x2 = 0.374	7.57e-05
x2 = 0.437	7.32e-05
x2 = 0.499	6.98e-05
x2 = 0.565	6.66e-05
x2 = 0.629	6.23e-05
x2 = 0.725	5.67e-05
x2 = 0.816	5.34e-05

CC(C)=O [acetone] + O=C=O
323 K
Details	molar volume [m3/mol]
x2 = 0.056	7.37e-05
x2 = 0.14	7.18e-05
x2 = 0.251	6.75e-05
x2 = 0.335	6.67e-05
x2 = 0.432	6.42e-05
x2 = 0.53	6.23e-05
x2 = 0.603	6.1e-05
x2 = 0.648	6.01e-05
x2 = 0.695	5.71e-05
x2 = 0.73	5.66e-05
x2 = 0.76	5.74e-05
x2 = 0.787	5.81e-05

CC#N [acetonitrile] + O=C=O
313 K
Details	molar volume [m3/mol]
x2 = 0.044	5.19e-05
x2 = 0.073	5.25e-05
x2 = 0.093	5.33e-05
x2 = 0.168	5.24e-05
x2 = 0.241	5.11e-05
x2 = 0.312	5.1e-05
x2 = 0.381	5.18e-05
x2 = 0.449	5.07e-05
x2 = 0.523	4.98e-05
x2 = 0.598	4.96e-05
x2 = 0.688	4.9e-05
x2 = 0.77	4.87e-05
x2 = 0.834	5.08e-05

ClCCl [dichloromethane] + O=C=O
313 K
Details	molar volume [m3/mol]
x2 = 0.044	6.51e-05
x2 = 0.114	6.32e-05
x2 = 0.188	6.24e-05
x2 = 0.269	6.13e-05
x2 = 0.444	5.87e-05
x2 = 0.533	5.74e-05
x2 = 0.644	5.64e-05
x2 = 0.738	5.32e-05
x2 = 0.83	5.42e-05
x2 = 0.859	5.82e-05

C[N+](=O)[O-] [nitromethane] + O=C=O
Details	molar volume [m3/mol]
298 K, x2 = 0.12	4.93e-05
298 K, x2 = 0.238	4.83e-05
298 K, x2 = 0.346	4.76e-05
298 K, x2 = 0.457	4.74e-05
298 K, x2 = 0.552	4.74e-05
298 K, x2 = 0.678	4.71e-05
298 K, x2 = 0.747	4.77e-05
298 K, x2 = 0.81	4.78e-05
298 K, x2 = 0.855	4.87e-05
298 K, x2 = 0.876	4.91e-05
313 K, x2 = 0.048	5.88e-05
313 K, x2 = 0.119	5.71e-05
313 K, x2 = 0.183	5.56e-05
313 K, x2 = 0.254	5.51e-05
313 K, x2 = 0.32	5.45e-05
313 K, x2 = 0.385	5.37e-05
313 K, x2 = 0.479	5.32e-05
313 K, x2 = 0.546	5.23e-05
313 K, x2 = 0.627	5.09e-05
313 K, x2 = 0.727	4.99e-05
313 K, x2 = 0.791	5.08e-05

FC(F)(F)C(F)(F)C(F)(F)C(F)(F)C(F)(F)C(F)(F)F [perfluorohexane] + O=C=O
313 K
Details	molar volume [m3/mol]
x2 = 0.146	0.0001867
x2 = 0.163	0.000187
x2 = 0.262	0.0001742
x2 = 0.27	0.0001732
x2 = 0.339	0.0001655
x2 = 0.424	0.0001511
x2 = 0.474	0.0001448
x2 = 0.547	0.0001324
x2 = 0.615	0.0001235
x2 = 0.665	0.0001165
x2 = 0.721	0.0001062
x2 = 0.765	9.7e-05
x2 = 0.776	9.49e-05
x2 = 0.811	9.03e-05
x2 = 0.836	9.17e-05

CC(C)O [propan-2-ol] + O=C=O
313 K
Details	molar volume [m3/mol]
x2 = 0.018	7.97e-05
x2 = 0.065	7.88e-05
x2 = 0.133	7.62e-05
x2 = 0.21	7.45e-05
x2 = 0.3	7.17e-05
x2 = 0.401	6.85e-05
x2 = 0.51	6.4e-05
x2 = 0.639	6.06e-05
x2 = 0.725	5.99e-05
x2 = 0.788	6.01e-05

C1CCOC1 [tetrahydrofuran] + O=C=O
Details	molar volume [m3/mol]
298 K, x2 = 0.132	7.08e-05
298 K, x2 = 0.228	6.55e-05
298 K, x2 = 0.333	6.46e-05
298 K, x2 = 0.451	6.2e-05
298 K, x2 = 0.518	6.08e-05
298 K, x2 = 0.624	5.86e-05
298 K, x2 = 0.736	5.64e-05
298 K, x2 = 0.83	5.49e-05
298 K, x2 = 0.899	5.43e-05
313 K, x2 = 0.098	7.75e-05
313 K, x2 = 0.313	7.09e-05
313 K, x2 = 0.398	6.82e-05
313 K, x2 = 0.489	6.53e-05
313 K, x2 = 0.576	6.29e-05
313 K, x2 = 0.655	6.23e-05
313 K, x2 = 0.733	6.02e-05
313 K, x2 = 0.832	5.72e-05
313 K, x2 = 0.89	6.02e-05
333 K, x2 = 0.165	7.45e-05
333 K, x2 = 0.26	7.34e-05
333 K, x2 = 0.404	6.87e-05
333 K, x2 = 0.539	6.6e-05
333 K, x2 = 0.696	5.84e-05
333 K, x2 = 0.808	6.04e-05
333 K, x2 = 0.85	6.29e-05
333 K, x2 = 0.893	7.05e-05

Cc1ccccc1 [toluene] + O=C=O
323 K
Details	molar volume [m3/mol]
x2 = 0.091	0.0001014
x2 = 0.175	9.72e-05
x2 = 0.26	9.21e-05
x2 = 0.335	8.76e-05
x2 = 0.408	8.37e-05
x2 = 0.48	8.02e-05
x2 = 0.524	7.82e-05
x2 = 0.583	7.22e-05
x2 = 0.644	6.72e-05
x2 = 0.715	6.46e-05
x2 = 0.764	6.32e-05
x2 = 0.821	6.23e-05
x2 = 0.865	6.26e-05
x2 = 0.883	6.35e-05
